Columns and labels:
Type in all cases: cell-based, human
CD8+-enriched PBMC [1] = assay: Direct ex vivo IFN-gamma ELISPOT screening of 98 predicted JCPyV MHC class I peptides in 92 healthy subjects; settings: for Positive Donors (p < 0.1): number of responding donors among about 10 donors of the predicted HLA allotype, 5*10^5 CD8+-enriched PBMC per well; for Positive Donors (p < 0.1) / tested donors/subjects with significant T cell response to the peptide: peptide 10 μM; for tested donors/subjects with significant T cell response to the peptide: initial screening, allotype-specific subjects; for JCPyV-seronegative subjects reacting against the peptide, out of 22: 22 JCPyV VP1 antibody-seronegative subjects with CTL response; for JCPyV-seronegative subjects reacting against the peptide: 22 JCPyV VP1 antibody-seronegative subjects with CTL response (adj p<0.1); for all subjects tested showing a positive response: independent of HLA-type
Procedure: The 9-mer and 10-mer JCPy virus test peptides were synthesized and HPLC purified to >90% (Thermo Fisher Scientific, GmbH). Peptides were solubilized in DMSO and used in ELISPOT (Mabtech, Sweden) at 10 μM.
(§1) To enrich for the CD8+ T cell population, CD4+ cells were depleted from the PBMC using magnetic cell separation, according to the manufacturer's instructions (StemCell Technologies, Vancouver, Canada).
(§2) PBMC from selected subjects were thawed, washed and seeded onto anti-IFN-γ coated 96-well plates (Mabtech, Sweden) at 2.5*10^5 or 5*10^5 cells per well. Test antigens were diluted in the assay media and added to the cells at the specified doses. Assay medium containing DMSO, and assay medium alone were included as blank conditions for all donors. Cells were incubated for 16-18 hours in a humidified atmosphere at 37° C., 5% CO2. After the incubation period the cells were washed from the plates and an in-house spot development procedure was used to determine IFN-γ production (Lonza, Cambridge, UK). Upon completion of spot development, the plates were scanned, counted and QC analysis conducted using the ImmunoSpot Analyzer (Cellular Technologies Ltd, Cleveland, US).
(§3) The spot count per well (i.e. the number of IFN-γ secreting cells per well) in response to each test antigen was analyzed. Mean values were calculated from the triplicate wells for each test condition. Data analysis was then carried out using the distribution free resampling method (DFR). The DFR method compares each test condition against the blank for each donor and calculates whether the difference is statistically significant (p<0.1).
(§4) The ELISPOT with CD8+-enriched PBMC (5*10^5 cells per well) with the standard ELISPOT assay medium without overnight resting period was used in further experiments.
All viral protein (VP1, VP2, agnoprotein, common T, large T Antigen (LTAg), and small t Antigen (stAg) from both JCPyV and BKPyV) sequences were scanned for the presence of putative HLA class I restricted epitopes. Profiling is performed at the allotype level for 16A and 12B, i.e. 28 HLA class I receptors in total. […] Therefore, during the further selection of epitopes with high expected immunogenicity potential, the following aspects were considered: high HLA-A and -B impact of epitopes, high promiscuity of epitopes, specificity to JCPyV proteins, potential preference for 9-mer peptides, minimal similarity of epitopes to human proteome sequences, location of epitopes in the JCPyV protein sequences Based on the in silico predictions, 98 peptides of the JCPyV proteins were finally selected, representing potential T cell epitopes for the major HLA class I allotypes in the global population. To test immunogenicity of these 98 peptides the ten most common HLA allotypes were selected, 5 HLA-A and 5 HLA-B allotypes (A*0101, A*0201, A*0301, A*1101, A*2402, B*0702, B*0801, B*1501, B*3501 and B*4001) and for each HLA allotype we aimed to have approximately 10 peptides that gave the strongest signal in Epibase. Alongside, the positive controls (CEF, VP1 peptide pool, and VP1 p100) and negative controls (medium blank and DMSO) were tested. The control peptide pools gave responses in the expected range, in 87% and 60% of all subjects tested, showing a positive response to the CEF and JCPyV VP1 peptide pools, respectively. […] The results for the other proteins can be found in supplementary Table 1 and 2.

CD8+-enriched PBMC [2] = assay: Direct ex vivo IFN-gamma ELISPOT validation of the top 10 peptides and their pool in 20 donors; settings: for donors responding (T cell response): 20 selected donors covering 8 HLA allotypes
Procedure: The peptide pool of top 10 peptides originating from the initial screening (JCPyV pool) was solubilized in DMSO at 12.5 mg/ml per peptide with a final working concentration of the pool around 10 μM.
as §1, §2, §3, §4
To verify whether the newly identified epitopes were really immunodominant, the 10 newly identified peptides were tested individually or as a peptide pool in the optimized CD8+ T cell enriched direct ex vivo ELISPOT assay. Twenty subjects were selected which cover 8 of the 10 HLA allotypes that were initially selected. […]

CD8+-enriched PBMC [3] = assay: Direct ex vivo IFN-gamma ELISPOT optimization (cell amount, CD8+ enrichment, medium, overnight rest)
Procedure: as §2
The spot count per well (i.e. the number of IFN-γ secreting cells per well) in response to each test antigen was analyzed. Mean values were calculated from the triplicate wells for each test condition. […]
It has been reported that for some viral peptides, the use of serum-free assay medium and overnight resting of the PBMC before stimulation with peptide can increase peptide specific T cell responses. The influence of assay medium and overnight resting of PBMC was evaluated using only CD8+-enriched PBMC from 5 HLA-A*02 subjects and one non-HLA-A*02 subject.

Sequence: FESDSPNRDM (JC polyomavirus) [AP00457]
- Positive Donors (p < 0.1) (CD8+-enriched PBMC [1]): 6
- donors responding (T cell response) (CD8+-enriched PBMC [2]): 90%

Sequence: FLRSSPLVWI (JC polyomavirus) [AP00386]
- tested donors/subjects with significant T cell response to the peptide (CD8+-enriched PBMC [1]): 80%
- Positive Donors (p < 0.1) (CD8+-enriched PBMC [1]): 8
- donors with significant T cell response out of 20 tested (CD8+-enriched PBMC [2]; 20 donors, peptides tested separately and as pool): 20
- donors responding (T cell response) (CD8+-enriched PBMC [2]): 100%

Sequence: GEAAATIEV (JC polyomavirus) [AP00460]
- Positive Donors (p < 0.1) (CD8+-enriched PBMC [1]): 3

Sequence: ILMWEAVTL [AP00410]
- subjects with significant IFN-γ response (DFR method) (CD8+-enriched PBMC [3]; FIG. 1 condition C: CD8+-enriched PBMC 5*10^5 per well, 3 HLA-A*02 and one non-HLA-A*02 subject): two subjects responded
- donors with significant IFN-γ response (CD8+-enriched PBMC [3]; FIG. 2 condition D: CD8+-enriched PBMC, serum containing medium, no overnight rest, 5 HLA-A*02 and one non-HLA-A*02 subject): three of them also responded
- JCPyV-seronegative subjects reacting against the peptide, out of 22 (CD8+-enriched PBMC [1]): almost all responded
- JCPyV-seronegative subjects reacting against the peptide (CD8+-enriched PBMC [1]): 82%
- subjects showing a positive response out of 92 tested (CD8+-enriched PBMC [1]; all 92 subjects): 44
- all subjects tested showing a positive response (CD8+-enriched PBMC [1]; all 92 subjects): 37%
- all subjects tested showing a positive response (CD8+-enriched PBMC [1]; all 92 subjects, listed as JCPyV VP1 p100 9-mer): 48%
- significant responses in A*0201 and A*2402 allotypes (CD8+-enriched PBMC [1]; donors with A*0201 and A*2402 allotypes): 58%
- Positive Donors (p < 0.1) (CD8+-enriched PBMC [1]): 7

Sequence: ILMWEAVTLK [AP00388, JCPyV VP1 p100 10-mer]
- potency at inducing CD8+ T cell responses, 10-mer compared with 9-mer (CD8+-enriched PBMC [1]; A*2402 donors): far less potent than the 9-mer

Sequence: LTCGNILMW (JC polyomavirus) [AP00367]
- Positive Donors (p < 0.1) (CD8+-enriched PBMC [1]): 4

Sequence: MAGVAWIHCL (JC polyomavirus) [AP00423]
- tested donors/subjects with significant T cell response to the peptide (CD8+-enriched PBMC [1]): 90%
- Positive Donors (p < 0.1) (CD8+-enriched PBMC [1]): 9

Sequence: RILIFLLEFL (JC polyomavirus) [AP00402]
- JCPyV-seronegative subjects reacting against the peptide, out of 22 (CD8+-enriched PBMC [1]): 8
- JCPyV-seronegative subjects reacting against the peptide (CD8+-enriched PBMC [1]): 36%
- Positive Donors (p < 0.1) (CD8+-enriched PBMC [1]): 6

Sequence: SAIAQLGYRF (JC polyomavirus) [AP00441]
- Positive Donors (p < 0.1) (CD8+-enriched PBMC [1]): 5

Sequence: STISQAFWNL (JC polyomavirus) [AP00400]
- Positive Donors (p < 0.1) (CD8+-enriched PBMC [1]): 6

Sequence: YPISFLLTDL (JC polyomavirus) [AP00377]
- Positive Donors (p < 0.1) (CD8+-enriched PBMC [1]): 5

Source: patent US20170059568A1, “Identification of JC viral epitopes by cytotoxic T lymphocytes in healthy individuals and their use in assays” (JANSSEN PHARMACEUTICA NV, priority 2014, published 2017)
